Test results published in PubChem BioAssay (NCI).
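Assay format: 96-well plates, 48-hour exposure. Abbreviation: GI50, concentration required for 50% inhibition of growth. TGI: concentration producing complete growth inhibition.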

Assays:
Test in all cases: growth of human tumour cells (NCI), 48 h
[1] = tested on: HCT-15 colon
[2] = tested on: SK-MEL-28 melanoma
[3] = tested on: UACC-62 melanoma
[4] = tested on: HL-60(TB) leukemia
[5] = tested on: MOLT-4 leukemia
[6] = tested on: CAKI-1 renal
[7] = tested on: EKVX NSCLC
[8] = tested on: T-47D breast
[9] = tested on: RXF 393 renal
[10] = tested on: A498 renal
[11] = tested on: SK-MEL-5 melanoma
[12] = tested on: RPMI-8226 leukemia
[13] = tested on: MALME-3M melanoma
[14] = tested on: HT29 colon
[15] = tested on: K-562 leukemia
[16] = tested on: KM12 colon
[17] = tested on: DU-145 prostate
[18] = tested on: OVCAR-3 ovarian
[19] = tested on: SW-620 colon
[20] = tested on: SNB-75 CNS
[21] = tested on: SF-268 CNS
[22] = tested on: OVCAR-4 ovarian
[23] = tested on: NCI-H460 lung
[24] = tested on: U251 CNS
[25] = tested on: LOX IMVI melanoma
[26] = tested on: SNB-19 CNS
[27] = tested on: MDA-MB-231 breast
[28] = tested on: SF-295 CNS
[29] = tested on: M14 melanoma
[30] = tested on: SF-539 CNS
[31] = tested on: 786-0 renal
[32] = tested on: OVCAR-8 ovarian
[33] = tested on: MDA-MB-435
[34] = tested on: NCI-H522 lung
[35] = tested on: NCI/ADR-RES ovarian
[36] = tested on: PC-3 prostate
[37] = tested on: BT-549 breast
[38] = tested on: OVCAR-5 ovarian
[39] = tested on: TK-10 renal
[40] = tested on: SN12C renal
[41] = tested on: HCT-116 colon
[42] = tested on: HCC-2998 colon
[43] = tested on: SK-MEL-2 melanoma
[44] = tested on: HS 578T breast
[45] = tested on: IGROV1 ovarian
[46] = tested on: ACHN renal
[47] = tested on: A549 NSCLC
[48] = tested on: COLO 205 colon
[49] = tested on: MCF7 breast
[50] = tested on: UO-31 renal
[51] = tested on: SK-OV-3 ovarian
[52] = tested on: HOP-62 NSCLC

Q: `O=C1NC(=O)C(c2ccccc2)=C1Nc1ccccc1` was tested. Which GI50 [1] did it give?
A: > 25 µM

Q: And the TGI [1]?
A: > 25 µM

Q: What about the GI50 [2] of the same compound?
A: > 25 µM

Q: What about the TGI [2] of the same compound?
A: > 25 µM

Q: And the GI50 [3]?
A: > 25 µM

Q: And the TGI [3]?
A: > 25 µM

Q: And the GI50 [4]?
A: > 25 µM

Q: What about the TGI [4] of the same compound?
A: > 25 µM

Q: What about the GI50 [5] of the same compound?
A: > 25 µM

Q: What about the TGI [5] of the same compound?
A: > 25 µM

Q: And the GI50 [6]?
A: > 25 µM

Q: What about the TGI [6] of the same compound?
A: > 25 µM

Q: What about the GI50 [7] of the same compound?
A: > 25 µM

Q: And the TGI [7]?
A: > 25 µM

Q: What about the GI50 [8] of the same compound?
A: > 25 µM

Q: And the TGI [8]?
A: > 25 µM

Q: And the GI50 [9]?
A: > 25 µM

Q: What about the TGI [9] of the same compound?
A: > 25 µM

Q: And the GI50 [10]?
A: > 22.1 µM

Q: What about the TGI [10] of the same compound?
A: > 25 µM

Q: And the GI50 [11]?
A: > 25 µM

Q: And the TGI [11]?
A: > 25 µM

Q: And the GI50 [12]?
A: > 25 µM

Q: And the TGI [12]?
A: > 25 µM

Q: And the GI50 [13]?
A: > 25 µM

Q: What about the TGI [13] of the same compound?
A: > 25 µM

Q: And the GI50 [14]?
A: > 25 µM

Q: What about the TGI [14] of the same compound?
A: > 25 µM

Q: And the GI50 [15]?
A: > 25 µM

Q: What about the TGI [15] of the same compound?
A: > 25 µM

Q: What about the GI50 [16] of the same compound?
A: > 25 µM

Q: And the TGI [16]?
A: > 25 µM

Q: What about the GI50 [17] of the same compound?
A: > 25 µM

Q: And the TGI [17]?
A: > 25 µM

Q: And the GI50 [18]?
A: > 25 µM

Q: And the TGI [18]?
A: > 25 µM

Q: What about the GI50 [19] of the same compound?
A: > 25 µM

Q: What about the TGI [19] of the same compound?
A: > 25 µM

Q: And the GI50 [20]?
A: > 25 µM

Q: And the TGI [20]?
A: > 25 µM

Q: And the GI50 [21]?
A: > 25 µM

Q: What about the TGI [21] of the same compound?
A: > 25 µM

Q: And the GI50 [22]?
A: > 25 µM

Q: And the TGI [22]?
A: > 25 µM

Q: And the GI50 [23]?
A: > 25 µM

Q: What about the TGI [23] of the same compound?
A: > 25 µM

Q: What about the GI50 [24] of the same compound?
A: > 25 µM

Q: What about the TGI [24] of the same compound?
A: > 25 µM

Q: And the GI50 [25]?
A: > 25 µM

Q: And the TGI [25]?
A: > 25 µM

Q: And the GI50 [26]?
A: > 25 µM

Q: And the TGI [26]?
A: > 25 µM

Q: What about the GI50 [27] of the same compound?
A: > 25 µM

Q: What about the TGI [27] of the same compound?
A: > 25 µM

Q: What about the GI50 [28] of the same compound?
A: > 25 µM

Q: And the TGI [28]?
A: > 25 µM

Q: What about the GI50 [29] of the same compound?
A: > 25 µM

Q: And the TGI [29]?
A: > 25 µM

Q: What about the GI50 [30] of the same compound?
A: > 25 µM

Q: What about the TGI [30] of the same compound?
A: > 25 µM

Q: What about the GI50 [31] of the same compound?
A: > 25 µM

Q: And the TGI [31]?
A: > 25 µM

Q: And the GI50 [32]?
A: > 25 µM

Q: What about the TGI [32] of the same compound?
A: > 25 µM

Q: What about the GI50 [33] of the same compound?
A: > 25 µM

Q: What about the TGI [33] of the same compound?
A: > 25 µM

Q: What about the GI50 [34] of the same compound?
A: > 25 µM

Q: And the TGI [34]?
A: > 25 µM

Q: What about the GI50 [35] of the same compound?
A: > 25 µM

Q: And the TGI [35]?
A: > 25 µM

Q: And the GI50 [36]?
A: > 25 µM

Q: And the TGI [36]?
A: > 25 µM

Q: What about the GI50 [37] of the same compound?
A: > 25 µM

Q: What about the TGI [37] of the same compound?
A: > 25 µM

Q: What about the GI50 [38] of the same compound?
A: > 25 µM

Q: What about the TGI [38] of the same compound?
A: > 25 µM

Q: What about the GI50 [39] of the same compound?
A: > 25 µM

Q: What about the TGI [39] of the same compound?
A: > 25 µM

Q: And the GI50 [40]?
A: > 25 µM

Q: What about the TGI [40] of the same compound?
A: > 25 µM

Q: What about the GI50 [41] of the same compound?
A: > 25 µM

Q: What about the TGI [41] of the same compound?
A: > 25 µM

Q: And the GI50 [42]?
A: > 25 µM

Q: What about the TGI [42] of the same compound?
A: > 25 µM

Q: And the GI50 [43]?
A: > 25 µM

Q: And the TGI [43]?
A: > 25 µM

Q: What about the GI50 [44] of the same compound?
A: 16.3 µM

Q: What about the TGI [44] of the same compound?
A: > 25 µM

Q: And the GI50 [45]?
A: > 25 µM

Q: And the TGI [45]?
A: > 25 µM

Q: And the GI50 [46]?
A: > 25 µM

Q: And the TGI [46]?
A: > 25 µM

Q: And the GI50 [47]?
A: > 25 µM

Q: And the TGI [47]?
A: > 25 µM

Q: And the GI50 [48]?
A: > 25 µM

Q: What about the TGI [48] of the same compound?
A: > 25 µM

Q: And the GI50 [49]?
A: > 25 µM

Q: What about the TGI [49] of the same compound?
A: > 25 µM

Q: And the GI50 [50]?
A: > 25 µM

Q: And the TGI [50]?
A: > 25 µM

Q: What about the GI50 [51] of the same compound?
A: > 25 µM

Q: And the TGI [51]?
A: > 25 µM

Q: What about the GI50 [52] of the same compound?
A: > 25 µM

Q: And the TGI [52]?
A: > 25 µM

Q: What does the source list for `NC(=O)CCc1ccccc1Oc1nccc(-c2c(-c3ccc(F)cc3)ncn2C2CCNCC2)n1`?
A: GI50 [1]: > 25 µM; TGI [1]: > 25 µM; GI50 [2]: > 25 µM; TGI [2]: > 25 µM; GI50 [3]: > 25 µM; TGI [3]: > 25 µM; GI50 [4]: > 25 µM; TGI [4]: > 25 µM; GI50 [5]: > 25 µM; TGI [5]: > 25 µM; GI50 [6]: > 25 µM; TGI [6]: > 25 µM; GI50 [7]: > 25 µM; TGI [7]: > 25 µM; GI50 [8]: > 25 µM; TGI [8]: > 25 µM; GI50 [9]: > 25 µM; TGI [9]: > 25 µM; GI50 [10]: > 25 µM; TGI [10]: > 25 µM; GI50 [11]: > 25 µM; TGI [11]: > 25 µM; GI50 [12]: > 25 µM; TGI [12]: > 25 µM; GI50 [13]: > 25 µM; TGI [13]: > 25 µM; GI50 [14]: > 25 µM; TGI [14]: > 25 µM; GI50 [15]: > 25 µM; TGI [15]: > 25 µM; GI50 [16]: > 25 µM; TGI [16]: > 25 µM; GI50 [17]: > 25 µM; TGI [17]: > 25 µM; GI50 [18]: > 25 µM; TGI [18]: > 25 µM; GI50 [19]: > 25 µM; TGI [19]: > 25 µM; GI50 [20]: > 25 µM; TGI [20]: > 25 µM; GI50 [21]: > 25 µM; TGI [21]: > 25 µM; GI50 [22]: > 25 µM; TGI [22]: > 25 µM; GI50 [23]: > 25 µM; TGI [23]: > 25 µM; GI50 [24]: > 25 µM; TGI [24]: > 25 µM; GI50 [25]: > 25 µM; TGI [25]: > 25 µM; GI50 [26]: > 25 µM; TGI [26]: > 25 µM; GI50 [27]: > 25 µM; TGI [27]: > 25 µM; GI50 [28]: > 25 µM; TGI [28]: > 25 µM; GI50 [29]: > 25 µM; TGI [29]: > 25 µM; GI50 [30]: > 25 µM; TGI [30]: > 25 µM; GI50 [31]: > 25 µM; TGI [31]: > 25 µM; GI50 [32]: > 25 µM; TGI [32]: > 25 µM; GI50 [33]: > 25 µM; TGI [33]: > 25 µM; GI50 [34]: > 25 µM; TGI [34]: > 25 µM; GI50 [35]: > 25 µM; TGI [35]: > 25 µM; GI50 [36]: > 25 µM; TGI [36]: > 25 µM; GI50 [37]: > 25 µM; TGI [37]: > 25 µM; GI50 [38]: > 25 µM; TGI [38]: > 25 µM; GI50 [39]: > 25 µM; TGI [39]: > 25 µM; GI50 [40]: > 25 µM; TGI [40]: > 25 µM; GI50 [41]: > 25 µM; TGI [41]: > 25 µM; GI50 [42]: > 25 µM; TGI [42]: > 25 µM; GI50 [43]: > 25 µM; TGI [43]: > 25 µM; GI50 [44]: > 25 µM; TGI [44]: > 25 µM; GI50 [45]: > 25 µM; TGI [45]: > 25 µM; GI50 [46]: > 25 µM; TGI [46]: > 25 µM; GI50 [47]: > 25 µM; TGI [47]: > 25 µM; GI50 [48]: > 25 µM; TGI [48]: > 25 µM; GI50 [49]: > 25 µM; TGI [49]: > 25 µM; GI50 [50]: > 25 µM; TGI [50]: > 25 µM; GI50 [51]: > 25 µM; TGI [51]: > 25 µM; GI50 [52]: > 25 µM; TGI [52]: > 25 µM
